From the supplement of paper PMC11451515

Tested on: SEM cells
Assay: cell viability relative to DMSO control; higher = less cytotoxic
Details: 48 h
In short: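 Viability is a per-plate percentage relative to DMSO wells, with cell-free wells as background. CellTiter-Glo One luminescence was read after 48 h at 37°C on 1536-well plates (5 μl) of NOMO1 or SEM (500 cells/well) or P12-Ichikawa (1000 cells/well) leukemia cells. The cells had been adapted for at least four passages in each medium and pin-dosed with library compounds in DMSO from 47 μM to 0.79 nM in 11 threefold steps.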

[1] = HPLM + 10% dialyzed FBS, 0.000781 µM
[2] = HPLM + 10% dialyzed FBS, 0.00234 µM
[3] = HPLM + 10% dialyzed FBS, 0.00702 µM
[4] = HPLM + 10% dialyzed FBS, 0.0211 µM
[5] = HPLM + 10% dialyzed FBS, 0.0632 µM
[6] = HPLM + 10% dialyzed FBS, 0.19 µM
[7] = HPLM + 10% dialyzed FBS, 0.569 µM
[8] = HPLM + 10% dialyzed FBS, 1.71 µM
[9] = HPLM + 10% dialyzed FBS, 5.12 µM
[10] = HPLM + 10% dialyzed FBS, 15.4 µM
[11] = HPLM + 10% dialyzed FBS, 46.1 µM
[12] = RPMI 5 mM glucose + 10% FBS, 0.000781 µM
[13] = RPMI 5 mM glucose + 10% FBS, 0.00234 µM
[14] = RPMI 5 mM glucose + 10% FBS, 0.00702 µM
[15] = RPMI 5 mM glucose + 10% FBS, 0.0211 µM
[16] = RPMI 5 mM glucose + 10% FBS, 0.0632 µM
[17] = RPMI 5 mM glucose + 10% FBS, 0.19 µM
[18] = RPMI 5 mM glucose + 10% FBS, 0.569 µM
[19] = RPMI 5 mM glucose + 10% FBS, 1.71 µM
[20] = RPMI 5 mM glucose + 10% FBS, 5.12 µM
[21] = RPMI 5 mM glucose + 10% FBS, 15.4 µM
[22] = RPMI 5 mM glucose + 10% FBS, 46.1 µM
[23] = RPMI 5 mM glucose + 10% dialyzed FBS, 0.000781 µM
[24] = RPMI 5 mM glucose + 10% dialyzed FBS, 0.00234 µM
[25] = RPMI 5 mM glucose + 10% dialyzed FBS, 0.00702 µM
[26] = RPMI 5 mM glucose + 10% dialyzed FBS, 0.0211 µM
[27] = RPMI 5 mM glucose + 10% dialyzed FBS, 0.0632 µM
[28] = RPMI 5 mM glucose + 10% dialyzed FBS, 0.19 µM
[29] = RPMI 5 mM glucose + 10% dialyzed FBS, 0.569 µM
[30] = RPMI 5 mM glucose + 10% dialyzed FBS, 1.71 µM
[31] = RPMI 5 mM glucose + 10% dialyzed FBS, 5.12 µM
[32] = RPMI 5 mM glucose + 10% dialyzed FBS, 15.4 µM
[33] = RPMI 5 mM glucose + 10% dialyzed FBS, 46.1 µM

Row | SMILES | cell viability [1] [%] | cell viability [2] [%] | cell viability [3] [%] | cell viability [4] [%] | cell viability [5] [%] | cell viability [6] [%] | cell viability [7] [%] | cell viability [8] [%] | cell viability [9] [%] | cell viability [10] [%] | cell viability [11] [%] | cell viability [12] [%] | cell viability [13] [%] | cell viability [14] [%] | cell viability [15] [%] | cell viability [16] [%] | cell viability [17] [%] | cell viability [18] [%] | cell viability [19] [%] | cell viability [20] [%] | cell viability [21] [%] | cell viability [22] [%] | cell viability [23] [%] | cell viability [24] [%] | cell viability [25] [%] | cell viability [26] [%] | cell viability [27] [%] | cell viability [28] [%] | cell viability [29] [%] | cell viability [30] [%] | cell viability [31] [%] | cell viability [32] [%] | cell viability [33] [%]
1 | OC[C@@H](O)[C@@H](O)[C@H](O)[C@@H](O)CO | 68.4 | 85.4 | 88.2 | 105 | 98.4 | 101 | 13.8 | 60 | 103 | 97 | 105 | 102 | 105 | 103 | 99.5 | 113 | 111 | 11.4 | 110 | 112 | 116 | 108 | 104 | 97.4 | 119 | 97.3 | 108 | 124 | 12.5 | 118 | 133 | 120 | 113
2 | CC(C)c1nc(CN(C)C(=O)N[C@H](C(=O)N[C@@H](Cc2ccccc2)C[C@H](O)[C@H](Cc2ccccc2)NC(=O)OCc2cncs2)C(C)C)cs1 | 84.8 | 90.5 | 101 | 87.5 | 96.2 | 91.6 | 85 | 85.1 | 81.5 | 62.6 | 74.4 | 94.9 | 103 | 110 | 103 | 90.7 | 89.7 | 84.8 | 88.8 | 87.3 | 80.1 | 87.5 | 104 | 113 | 98.4 | 85 | 106 | 86.1 | 94.8 | 105 | 92.4 | 88.1 | 99.8
3 | CC(C)CNc1ccnc(NCc2csc(-c3ccccc3)n2)n1 | 88.4 | 107 | 104 | 100 | 121 | 113 | 107 | 120 | 108 | 64.2 | 61.1 | 110 | 110 | 127 | 113 | 138 | 145 | 142 | 138 | 113 | 88.9 | 68.2 |  |  |  |  |  |  |  |  |  |  | 
4 | CCC1(c2ccccc2)C(=O)NCNC1=O | 94.6 | 104 | 105 | 78.7 | 102 | 110 | 114 | 117 | 116 | 106 | 122 | 100 | 112 | 108 | 76.1 | 106 | 109 | 108 | 103 | 116 | 113 | 117 | 91.6 | 115 | 123 | 84.4 | 108 | 120 | 117 | 115 | 114 | 117 | 109
5 | CC1(C)O[C@@H]2C[C@H]3[C@@H]4C[C@H](F)C5=CC(=O)C=C[C@]5(C)[C@@]4(F)[C@@H](O)C[C@]3(C)[C@]2(C(=O)CO)O1 | 97.9 | 98.7 | 91.3 | 83.5 | 58.3 | 51.5 | 41 | 44.9 | 43.8 | 54.4 | 45.4 | 98.3 | 120 | 87.1 | 82.6 | 65.5 | 63.2 | 63.4 | 49.5 | 51.1 | 56.1 | 53.7 | 116 | 109 | 98.4 | 91.3 | 59.6 | 55.2 | 39.1 | 51.7 | 47.8 | 44.6 | 49.2
6 | CC[S+](=O)([O-])c1cccc(-c2cc(C(=O)NC3CCN(C)CC3)c(C)c3[nH]c4ncc(C)cc4c23)c1 | 109 | 103 | 130 | 110 | 124 | 101 | 52.3 | 38.6 | 30.2 | 18.8 | 8.97 | 114 | 120 | 140 | 120 | 138 | 83.2 | 46.6 | 27.7 | 20.6 | 12.9 | 5.92 | 99.2 | 92.5 | 135 | 127 | 118 | 82.6 | 46 | 31.9 | 23.8 | 20.6 | 6.33
7 | CNC(=O)c1ccc2cc(C3(O)CCn4cncc43)ccc2c1 (centres undefined) | 128 | 119 | 103 | 125 | 125 | 113 | 108 | 107 | 106 | 123 | 107 |  |  |  |  |  |  |  |  |  |  |  |  |  |  |  |  |  |  |  |  |  | 
8 | C[C@]12CC[C@@H]3c4ccc(O)cc4CC[C@H]3[C@@H]1[C@@H](O)[C@@H](O)[C@@H]2O | 104 | 119 | 112 | 115 | 116 | 127 | 123 | 86 | 125 | 99.9 | 84.1 | 87.8 | 125 | 110 | 82 | 102 | 88.5 | 94.2 | 80 | 99 | 99.4 | 38.8 | 101 | 110 | 120 | 118 | 121 | 132 | 126 | 90 | 129 | 103 | 64.5
9 | C[C@]12COC(=O)C[C@@H]1CC[C@@H]1[C@@H]2CC[C@@]2(C)[C@H]1CC[C@]2(C)O | 96.4 | 97.7 | 95.7 | 105 | 94 | 93.3 | 85.5 | 96.6 | 101 | 86.3 | 88.4 | 105 | 110 | 104 | 100 | 106 | 106 | 105 | 101 | 95.9 | 90 | 78.4 | 98.2 | 109 | 104 | 111 | 121 | 109 | 101 | 92 | 101 | 89.5 | 78.6
10 | CC(C)OC(=O)C(C(=O)OC(C)C)=C1S\C=C/S1 | 112 | 119 | 128 | 125 | 120 | 123 | 117 | 123 | 118 | 70.1 | 113 | 114 | 135 | 122 | 125 | 122 | 133 | 141 | 131 | 116 | 50.9 | 109 |  |  |  |  |  |  |  |  |  |  | 
11 | C[C@H]1C[C@@H]2[C@H](CC[C@@]3(C)[C@H]2CC[C@]3(OC(C)=O)C(C)=O)[C@@]\4(C)CCC(=O)\C=C14 | 64.9 | 101 | 79.8 | 87 | 88.5 | 85.1 | 92.9 | 87.6 | 85.3 | 88.9 | 101 | 75 | 89.9 | 97.5 | 92.2 | 105 | 96.2 | 84.5 | 96.7 | 91.6 | 80.8 | 85.9 | 75.4 | 96 | 77.3 | 105 | 101 | 94.2 | 78.7 | 94.1 | 88 | 80.1 | 88.9
12 | O=C(O)C1(Cc2cccc(Nc3nccs3)n2)CCC(Oc2cccc(Cl)c2F)CC1 (centres undefined) | 86.3 | 108 | 93.3 | 68.4 | 104 | 101 | 108 | 75.6 | 42 | 28.9 | 18.9 | 97 | 88.9 | 101 | 87.4 | 114 | 96.5 | 102 | 66.5 | 43.1 | 22.2 | 12.7 | 81.9 | 86.5 | 97.5 | 92.6 | 95.1 | 111 | 111 | 68.7 | 43.2 | 25.2 | 17.1
13 | COC(=O)Nc1cc(Nc2cc(NC3CC3)c3ncc(C#N)n3n2)c(Cl)c(N2CCN(C)CC2)c1 | 97.9 | 103 | 98.7 | 98.5 | 98 | 102 | 86.5 | 77.7 | 37.9 | 5.22 | 4.93 |  |  |  |  |  |  |  |  |  |  |  | 113 | 122 | 110 | 109 | 103 | 95 | 84.4 | 61.9 | 29.9 | 5.89 | 5.24
14 | CN(C)[S+](=O)([O-])c1ccc2c(c1)C(=Cc1cc3c([nH]1)CCCC3)C(=O)N2 | 112 | 115 | 112 | 114 | 128 | 129 | 130 | 116 | 114 | 85.7 | 111 | 90.5 | 98.6 | 109 | 103 | 118 | 113 | 118 | 113 | 112 | 78.5 | 94.7 | 116 | 115 | 127 | 120 | 120 | 108 | 132 | 123 | 113 | 72.9 | 116
15 | NC1=C(Cl)C(=CC=N1)OC2=C(F)C=C(NC(=O)\C3=C\N\C=C(C3=O)\C4=CC=C(F)C=C4)C=C2 | 118 | 107 | 121 | 72.2 | 92.6 | 72.6 | 64.4 | 64 | 58.8 | 64.1 | 11.5 | 129 | 113 | 115 | 79.2 | 76 | 70.5 | 65.3 | 76.2 | 49 | 46.7 | 3.66 | 140 | 103 | 115 | 65.7 | 60 | 57.7 | 59.1 | 59.5 | 57.9 | 58.5 | 4.6
16 | CCCCC(=O)O[C@]1(C(=O)CO)[C@H](C)C[C@H]2[C@@H]3CCC4=CC(=O)C=C[C@]4(C)[C@@]3(F)[C@@H](O)C[C@@]21C | 102 | 122 | 111 | 96.2 | 92.6 | 87.1 | 83.4 | 75.2 | 71 | 71.4 | 70.9 | 118 | 124 | 139 | 124 | 91.3 | 98.2 | 84.3 | 73.9 | 76.7 | 70.3 | 67.6 |  |  |  |  |  |  |  |  |  |  | 
17 | Cc1coc2c1C(=O)C(=O)c1c-2ccc2c(C)cccc12 |  |  |  |  |  |  |  |  |  |  |  | 91.4 | 79.7 | 107 | 12.8 | 91.3 | 80.1 | 90.3 | 78 | 72.8 | 54 | 48.6 | 112 | 117 | 135 | 19.3 | 112 | 115 | 98 | 102 | 106 | 86.4 | 75.3
